In patent publication US20130053381A1, “2,4-DIOXO-1,4-DIHYDRO-2H-QUINAZOLIN-3-YL-SULFONAMIDE DERIVATIVES” (NOVARTIS AG, priority 2010, published 2013):

Tested on: OF1 mice
Assay: Maximal electroshock test (MES Test)
Type: in vivo
Details: Mus musculus, po; 50 mg/kg, p.o., pre-treatment time −1 h; read-out: %-Protection
Protocol: Compounds of the invention were tested in OF1 mice using the maximal electroshock test (MES Test) described in detail by Schmutz et al., Naunyn-Schmiedeberg's Arch Pharmacol 1990, 342, 61-66. Briefly, generalized tonic-clonic convulsions of the hind extremities were induced by passing electrical current through temporal electrodes (50 Hz, 18 mA, 0.2s). […] 30 mg/kg carbamazepine was used as a positive control; mice were classified as protected by a compound If the duration of the seizure lasted only 3 second or less. Five mice were used for each treatment condition and the percentage of protected mice was used as readout (i.e. a compound could give 0%, 20%, 40%, 60%, 80% or 100% protection). Usually, compounds of the invention or their parents were given at a dose of 50 mg/kg, p.o., 1 hour prior to induction of convulsions (i.e. “pre-treatment time −1 h”).
ED50 values (ED: effective dose) were calculated using GraphPad Prism, v4.02. after shock administration, mouse blood was collected for determination of compounds' blood exposure.

SMILES | responders at 50 mg/kg [%]
CCC(=O)N(n1c(=O)[nH]c2cc(C(C)C)c(-c3ccnn3C)cc2c1=O)S(C)(=O)=O [Example 3.12, N-[7-Isopropyl-6-(2-methyl-2H-pyrazol-3-yl)-2,4-dioxo-1,4-dihydro-2H-quinazolin-3-yl]-N-propionyl-methanesulfonamide] | 100
CCCC(=O)N(n1c(=O)[nH]c2cc(C(C)C)c(-c3ccnn3C)cc2c1=O)S(C)(=O)=O [Example 3.13, N-Butyryl-N-[7-isopropyl-6-(2-methyl-2H-pyrazol-3-yl)-2,4-dioxo-1,4-dihydro-2H-quinazolin-3-yl]-methanesulfonamide] | 100
CCCCCC(=O)N(n1c(=O)[nH]c2cc(C(C)C)c(-c3ccnn3C)cc2c1=O)S(C)(=O)=O [Example 3.14, N-Hexanoyl-N-[7-isopropyl-6-(2-methyl-2H-pyrazol-3-yl)-2,4-dioxo-1,4-dihydro-2H-quinazolin-3-yl]-methanesulfonamide] | 100
CC(C)C(=O)N(n1c(=O)[nH]c2cc(C(C)C)c(-c3ccnn3C)cc2c1=O)S(C)(=O)=O [Example 3.16, N-Isobutyryl-N-[7-isopropyl-6-(2-methyl-2H-pyrazol-3-yl)-2,4-dioxo-1,4-dihydro-2H-quinazolin-3-yl]-methanesulfonamide] | 60
CC(=O)OCC(=O)N(n1c(=O)[nH]c2cc(C(C)C)c(-c3ccnn3C)cc2c1=O)S(C)(=O)=O [Example 3.17, Acetic acid 2-{[7-isopropyl-6-(2-methyl-2H-pyrazol-3-yl)-2,4-dioxo-1,4-dihydro-2H-quinazolin-3-yl]-methanesulfonyl-amino}-2-oxo-ethyl ester] | 100
CSCCC(=O)N(n1c(=O)[nH]c2cc(C(C)C)c(-c3ccnn3C)cc2c1=O)S(C)(=O)=O [Example 3.18, N-[7-Isopropyl-6-(2-methyl-2H-pyrazol-3-yl)-2,4-dioxo-1,4-dihydro-2H-quinazolin-3-yl]-N-(3-methylsulfanyl-propionyl)-methanesulfonamide] | 100
CCOC(=O)N(n1c(=O)[nH]c2cc(C(C)C)c(-c3ccnn3C)cc2c1=O)S(C)(=O)=O [Example 3.19, [7-Isopropyl-6-(2-methyl-2H-pyrazol-3-yl)-2,4-dioxo-1,4-dihydro-2H-quinazolin-3-yl]-methanesulfonyl-carbamic acid ethyl ester] | 100
CCCOC(=O)N(n1c(=O)[nH]c2cc(C(C)C)c(-c3ccnn3C)cc2c1=O)S(C)(=O)=O [Example 3.20, [7-Isopropyl-6-(2-methyl-2H-pyrazol-3-yl)-2,4-dioxo-1,4-dihydro-2H-quinazolin-3-yl]-methanesulfonyl-carbamic acid propyl ester] | 100
CCCCOC(=O)N(n1c(=O)[nH]c2cc(C(C)C)c(-c3ccnn3C)cc2c1=O)S(C)(=O)=O [Example 3.21, [7-Isopropyl-6-(2-methyl-2H-pyrazol-3-yl)-2,4-dioxo-1,4-dihydro-2H-quinazolin-3-yl]-methanesulfonyl-carbamic acid butyl ester] | 100
CCCCCCOC(=O)N(n1c(=O)[nH]c2cc(C(C)C)c(-c3ccnn3C)cc2c1=O)S(C)(=O)=O [Example 3.22, [7-Isopropyl-6-(2-methyl-2H-pyrazol-3-yl)-2,4-dioxo-1,4-dihydro-2H-quinazolin-3-yl]-methanesulfonyl-carbamic acid hexyl ester] | 100
CC(C)c1cc2[nH]c(=O)n(N(C(=O)C(C)(C)C)S(C)(=O)=O)c(=O)c2cc1-c1ccnn1C [Example 3.23, N-(2,2-Dimethyl-propionyl)-N-[7-isopropyl-6-(2-methyl-2H-pyrazol-3-yl)-2,4-dioxo-1,4-dihydro-2H-quinazolin-3-yl]-methanesulfonamide] | 20
CC(=O)N(n1c(=O)c2cc(-c3ccnn3C)c(C(C)C)cc2n(C(C)=O)c1=O)S(C)(=O)=O [Example 3.24, N-Acetyl-N-[1-acetyl-7-isopropyl-6-(2-methyl-2H-pyrazol-3-yl)-2,4-dioxo-1,4-dihydro-2H-quinazolin-3-yl]-methanesulfonamide] | 100
CCC(=O)N(n1c(=O)c2cc(-c3ccnn3C)c(C(C)C)cc2n(C(=O)CC)c1=O)S(C)(=O)=O [Example 3.25, N-[7-Isopropyl-6-(2-methyl-2H-pyrazol-3-yl)-2,4-dioxo-1-propionyl-1,4-dihydro-2H-quinazolin-3-yl]-N-propionyl-methanesulfonamide] | 100
CCCC(=O)N(n1c(=O)c2cc(-c3ccnn3C)c(C(C)C)cc2n(C(=O)CCC)c1=O)S(C)(=O)=O [Example 3.26, N-Butyryl-N-[1-butyryl-7-isopropyl-6-(2-methyl-2H-pyrazol-3-yl)-2,4-dioxo-1,4-dihydro-2H-quinazolin-3-yl]-methanesulfonamide] | 80

Same assay, conditions: Mus musculus, po; Dose: 15 mg/kg, p.o. (footnote c), pre-treatment time −1 h; read-out: %-Protection

SMILES | responders at 15 mg/kg [%]
CC(C)COC(=O)N(n1c(=O)[nH]c2cc(C(C)C)c(-c3ccnn3C)cc2c1=O)S(C)(=O)=O [Example 3.03, [7-Isopropyl-6-(2-methyl-2H-pyrazol-3-yl)-2,4-dioxo-1,4-dihydro-2H-quinazolin-3-yl]-methanesulfonyl-carbamic acid isobutyl ester] | 40
CC(C)COC(=O)N(n1c(=O)c2cc(-c3ccnn3C)c(C(C)C)cc2n(C(=O)OCC(C)C)c1=O)S(C)(=O)=O [Example 3.04, 3-(Isobutoxycarbonyl-methanesulfonyl-amino)-7-isopropyl-6-(2-methyl-2H-pyrazol-3-yl)-2,4-dioxo-3,4-dihydro-2H-quinazoline-1-carboxylic acid isobutyl ester] | 20
COC(=O)N(n1c(=O)[nH]c2cc(C(C)C)c(-c3ccnn3C)cc2c1=O)S(C)(=O)=O [Example 3.05, [7-Isopropyl-6-(2-methyl-2H-pyrazol-3-yl)-2,4-dioxo-1,4-dihydro-2H-quinazolin-3-yl]-methanesulfonyl-carbamic acid methyl ester] | 60
CCOC(=O)CCC(=O)N(n1c(=O)[nH]c2cc(C(C)C)c(-c3ccnn3C)cc2c1=O)S(C)(=O)=O [Example 3.06, 4-{[7-Isopropyl-6-(2-methyl-2H-pyrazol-3-yl)-2,4-dioxo-1,4-dihydro-2H-quinazolin-3-yl]-methanesulfonyl-amino}-4-oxo-butyric acid ethyl ester] | 100
CCOC(=O)CC(=O)N(n1c(=O)[nH]c2cc(C(C)C)c(-c3ccnn3C)cc2c1=O)S(C)(=O)=O [Example 3.07, 3-{[7-Isopropyl-6-(2-methyl-2H-pyrazol-3-yl)-2,4-dioxo-1,4-dihydro-2H-quinazolin-3-yl]-methanesulfonyl-amino}-3-oxo-propionic acid ethyl ester] | 80
CCOC(=O)CCCC(=O)N(n1c(=O)[nH]c2cc(C(C)C)c(-c3ccnn3C)cc2c1=O)S(C)(=O)=O [Example 3.08, 5-{[7-Isopropyl-6-(2-methyl-2H-pyrazol-3-yl)-2,4-dioxo-1,4-dihydro-2H-quinazolin-3-yl]-methanesulfonyl-amino}-5-oxo-pentanoic acid ethyl ester] | 100
CCCCC(=O)N(n1c(=O)[nH]c2cc(C(C)C)c(-c3ccnn3C)cc2c1=O)S(C)(=O)=O [Example 3.09, N-[7-Isopropyl-6-(2-methyl-2H-pyrazol-3-yl)-2,4-dioxo-1,4-dihydro-2H-quinazolin-3-yl]-N-pentanoyl-methanesulfonamide] | 100
CC(=O)OC(C)(C)C(=O)N(n1c(=O)[nH]c2cc(C(C)C)c(-c3ccnn3C)cc2c1=O)S(C)(=O)=O [Example 3.10, Acetic acid 2-{[7-isopropyl-6-(2-methyl-2H-pyrazol-3-yl)-2,4-dioxo-1,4-dihydro-2H-quinazolin-3-yl]-methanesulfonyl-amino}-1,1-dimethyl-2-oxo-ethyl ester] | 40

Same assay, conditions: Mus musculus, po; Dose: 15 mg/kg, p.o., pre-treatment time −2 h (footnotes a,c); read-out: %-Protection

SMILES | responders at 15 mg/kg [%]
CC(=O)OC(C)(C)C(=O)N(n1c(=O)c2cc(-c3ccnn3C)c(C(C)C)cc2n(C(=O)C(C)(C)OC(C)=O)c1=O)S(C)(=O)=O [Example 3.11, Acetic acid 2-[3-[(2-acetoxy-2-methyl-propionyl)-methanesulfonyl-amino]-7-isopropyl-6-(2-methyl-2H-pyrazol-3-yl)-2,4-dioxo-3,4-dihydro-2H-quinazolin-1-yl]-1,1-dimethyl-2-oxo-ethyl ester] | 40

Same assay, conditions: Mus musculus, po; Table 5; 50 mg/kg, p.o., pre-treatment time −0.25 h; read-out: %-Protection

SMILES | responders at 50 mg/kg [%]
CC(=O)N(n1c(=O)c2cc(-c3ccnn3C)c(C(C)C)cc2n(C(C)=O)c1=O)S(C)(=O)=O [Example 3.24, N-Acetyl-N-[1-acetyl-7-isopropyl-6-(2-methyl-2H-pyrazol-3-yl)-2,4-dioxo-1,4-dihydro-2H-quinazolin-3-yl]-methanesulfonamide] | 100

Same assay, conditions: Mus musculus, po; Table 5; 50 mg/kg, p.o., pre-treatment time −0.5 h; read-out: %-Protection

SMILES | responders at 50 mg/kg [%]
CC(=O)N(n1c(=O)c2cc(-c3ccnn3C)c(C(C)C)cc2n(C(C)=O)c1=O)S(C)(=O)=O [Example 3.24, N-Acetyl-N-[1-acetyl-7-isopropyl-6-(2-methyl-2H-pyrazol-3-yl)-2,4-dioxo-1,4-dihydro-2H-quinazolin-3-yl]-methanesulfonamide] | 100

Same assay, conditions: Mus musculus, sc; Dose: 25 mg/kg, s.c., pre-treatment time −4 h (footnote f); read-out: %-Protection

SMILES | responders at 25 mg/kg [%]
CCCCCCCCCC(=O)N(n1c(=O)[nH]c2cc(C(C)C)c(-c3ccnn3C)cc2c1=O)S(C)(=O)=O [Example 3.15, N-Decanoyl-N-[7-isopropyl-6-(2-methyl-2H-pyrazol-3-yl)-2,4-dioxo-1,4-dihydro-2H-quinazolin-3-yl]-methanesulfonamide] | 20

Same assay, conditions: Mus musculus; dose of up to 50 mg/kg, p.o., 1 hour prior to induction of convulsions; read-out: %-Protection

SMILES | responders at 50 mg/kg [%]
CCCCCCCCCC(=O)N(n1c(=O)[nH]c2cc(C(C)C)c(-c3ccnn3C)cc2c1=O)S(C)(=O)=O [Example 3.15, N-Decanoyl-N-[7-isopropyl-6-(2-methyl-2H-pyrazol-3-yl)-2,4-dioxo-1,4-dihydro-2H-quinazolin-3-yl]-methanesulfonamide] | 0

Same assay, conditions: Table 5; 50 mg/kg, p.o., pre-treatment time −1 h

SMILES | %-Protection [%]
CC(=O)N(n1c(=O)c2cc(-c3ccnn3C)c(C(C)C)cc2n(C(C)=O)c1=O)S(C)(=O)=O [Example 3.24, N-Acetyl-N-[1-acetyl-7-isopropyl-6-(2-methyl-2H-pyrazol-3-yl)-2,4-dioxo-1,4-dihydro-2H-quinazolin-3-yl]-methanesulfonamide] | 100
